Laboratory results as given in US11718628B2, “SREBP inhibitors comprising a 6-membered central ring” (Capulus Therapeutics, LLC, priority 2018, dated 2023).
In brackets after ≈: the same amount, converted by molar mass.

Tests used:
SREBP = experiment: Reporter screening assay (SRE-luciferase reporter construct); format: cell-based; conditions: Homo sapiens; SREBPv1 reporter cell line HepG2, 24 hours, 0.01 uM to 10 uM; read-out: Reporter Screening IC50 (nM) Activity Range
Description: This assay was used to evaluate the effect on transcriptional activity SREBP of the compounds synthesized according to Examples 1-16, 20, and 22, using an SRE-luciferase reporter construct. On day 1, 10,000 cells were seeded in a 96 well (white) plate as per the plate map in Growth media without antibiotics. Cells were incubated at 37° C. for 8 hours. After 8 hours, cells were washed with DPBS for complete removal of FBS. DPBS was completely removed and Growth media was replaced with phenol free treatment medium (90 μl) with different FBS concentrations. The cells were then incubated at 37° C. for 24 hours with varying doses (0.01 uM to 10 uM) of compounds. Then a Luciferase assay was performed.
Reagents for performing Luciferase assay were stored at −20° C. To a tube of lyophilized assay substrate was added 1 mL Substrate Solvent and mixed well. The Substrate tube after reconstitution was covered with aluminum foil so as to keep it protected from light. The assay buffer was thawed to room temperature. To 20 mL Assay Buffer was added 200 μL of reconstituted 100× Substrate and mixed well. The reconstituted substrate as well as the assay solution (buffer+substrate) was protected from light throughout the procedure by keeping it covered with aluminum foil.
Using a multi-channel pipette, 100 μL Assay Solution (buffer+substrate) was added directly to each sample well in Plate 1, which was incubated for 30 min (plate was covered with aluminum foil). After 30 min incubation, the plate was read for total luminescence. Each well was read for 2 seconds in a plate luminometer. (Microplate reader Envision Microplate reader from Perkin Elmer). Precaution was taken to incubate plate exactly for 30 min prior to reading on the plate reader.
Materials: SREBPv1 Reporter cell line: HepG2—#32251. Growth Medium: MEM (Corning 10-010), 10% FBS, 1% GlutaMax (Invitrogen Catalog #35050061), […] (Invitrogen Catalog #A1113803) and 1% Penicillin-Streptomycin (Pen-Strep). Treatment Media: Phenol-free MEM (Invitrogen Catalog #51200-038) and 1% GlutaMax (Invitrogen Catalog #35050061). Luciferase Assay: LightSwitch Luciferase Assay Kit (Catalog #32032). LDH assay: Pierce LDH Cytotoxicity Assay Kit (Catalog #SD249616).

[1] = Half-life in human liver microsomes; format: in vitro ADME; conditions: NADPH, 37° C.; for half-life at 1 µM: human, liver microsomes, read-out: G: half-life human liver microsomes
Description: (§1) Half-life Human Microsomes: Compounds were evaluated for stability in human liver microsomes. A 10 mM stock solution of the compound being evaluated was prepared in DMSO and diluted with water:acetonitrile (1:1) to a concentration of 1 mM. A working concentration of 100 μM was prepared by further dilution with water:acetonitrile (1:1). To make the preincubation mixture, 2.5 μL of the diluted compound was combined with 75 μL of human liver microsomes at 3.33 mg/mL, and 85 μL of 100 mM potassium phosphate buffer, and this mixture was pre-incubated for 10 min at 37° C. To make the 60 minute mixture without cofactor, 32.5 μL of the preincubation mixture was combined with 17.5 μL of 100 mM potassium phosphate buffer and incubated for 60 min at 37° C. To make the 0 min sample with cofactor (NADPH), 16.25 μL of the preincubation mixture was combined with 200 μL of acetonitrile containing internal standard and 8.75 μL of cofactor (NADPH). To make the incubation mixture, 62 μL of cofactor (2.85 mM) was combined with the remaining incubation mixture, and incubated for 60 min at 37° C. To prepare the sample mixture to be evaluated, 25 μL incubation mixture was combined with 200 μL of acetonitrile containing internal standard and vortexed for 5 min at 1200 rpm, then centrifuged for 10 min at 4000 rpm. The supernatant was diluted 2 fold with water and injected on LC-MS/MS. The sample mixture was evaluated by LC-MS/MS using 10 mM ammonium acetate with 0.1% FA as the aqueous mobile phase, and methanol as the organic mobile phase.

[2] = Half-life in mouse liver microsomes; format: in vitro ADME; conditions: for half-life at 1 µM: mouse, liver microsomes, read-out: H: half-life of mouse liver microsomes
Description: as §1
Half-life Mouse Microsomes: Compounds were evaluated in mouse liver microsomes following a similar procedure as described above for human liver microsomes. A similar procedure could be used to evaluate compounds in rat liver microsomes.

Kinetic solubility = format: physicochemical; conditions: pH 7.4 buffer, room temperature, 1.0% DMSO; for solubility kinetic at 24 h: aqueous buffer, kinetic from dmso stock, read-out: I: kinetic solubility class
Description: Kinetic Solubility Procedure: A 10 mM stock solution of a compound was prepared in DMSO, then 4 μL of the stock was added to a deep well plate containing 396 μL of pH 7.4 buffer. The sample plate was vortexed at 800 rpm for 24 h on thermomixer at room temperature. The plate was sealed well during the incubation process. The DMSO content in the sample was 1.0%. The concentration of the evaluated compound in the final incubation was 100 μM. At the end of the incubation period, the sample plate was centrifuged at 4000 rpm for 10 min and analyzed in LC-UV against a calibration curve (CC). Values <10 μg/mL=Low; 10 to 60 μg/mL=Medium; >60 μg/mL=High.

[3] = In vivo pharmacokinetic properties in rats (IV and PO); set-up: species or system male Sprague Dawley rats
Description: (§2) The in vivo pharmacokinetic properties of compounds by both intravenous and oral administration were evaluated in male Sprague Dawley rats or C57BL/6J mice.
(§3) Animals were housed in cages with clean bedding. Certified rodent diet was provided. Water was available ad libitum. Environmental controls for the animal room were set to maintain a temperature of 22° C. to 25° C., humidity of 40-70% RH, and a 12-hour light/12-hour dark cycle. Normal healthy animals certified by the attending veterinarian were selected and acclimatized for minimum three days prior to initiation of study.
Surgical Procedure for Jugular Vein Cannulation of Rats: Rats were anaesthetized with a single dose of ketamine 50 mg/kg i.p.+xylazine 6 mg/kg i.p. The right jugular vein was exposed, a loose ligature was placed caudally, and the cranial end of vein was ligated. A small incision was made between the ligatures into which the catheter (polyethylene 50 tubing of internal diameter 0.58 mm and outer diameter 0.96 mm) was inserted. The catheter was secured in place by tying the loose ligature around the catheterized vessel. A small incision was made in the scapular region to serve as the exit site of the catheter. The catheter was subcutaneously tunneled and exteriorized through scapular incision. A stay suture was placed in the scapular area. Patency was tested, and catheter was filled with a locking solution (heparinized saline) and sealed with a stainless steel plug. The incision was then sutured with sterile suturing material. Anti-septic solution was applied to the sutured site and animal was placed back in the home cage.
(§4) To evaluate pharmacokinetic properties of intravenous delivery, male Sprague Dawley rats were administered 2.00 mg compound/kg animal weight through the tail vein. The concentration of the compound in the plasma of the animals was evaluated at 0.083, 0.25, 0.5, 1, 2, 4, 8, 12 and 24 hr by taking blood samples from the cannulated jugular vein. For the C5Bl/6J mice, blood samples were collected through a capillary, guided in retro-orbital plexus.
To evaluate pharmacokinetic properties of oral delivery, rats (male Sprague Dawley rats) or mice (C5Bl/6J) were administered 10 mg compound/kg animal weight by mouth. The concentration of compound in the plasma of the animals was evaluated at 0.25, 0.5, 1, 2, 4, 6, 8, 12 and 24 hr by taking blood samples from the cannulated jugular vein (rats) or through a capillary, guided in retro-orbital plexus (mice).

[4] = In vivo pharmacokinetic properties in mice (IV and PO); set-up: species or system C57BL/6J mice; conditions: mice
Description: as §2, §3, §4
[…] The concentration of compound in the plasma of the animals was evaluated at 0.25, 0.5, 1, 2, 4, 6, 8, 12 and 24 hr by taking blood samples from the cannulated jugular vein (rats) or through a capillary, guided in retro-orbital plexus (mice).

Compound | IC50 (SREBP) [nM] | half-life at 1 µM [1] [min] | half-life at 1 µM [2] [min] | solubility kinetic at 24 h (Kinetic solubility) [µg/mL] | further results
CC(C)(C)c1cc(-c2cc(-c3ccc(C(=O)N4CCC(O)CC4)cc3Cl)ccn2)ccn1 [Compound 1, (4-(2′-(tert-butyl)-[2,4′-bipyridin]-4-yl)-3-chlorophenyl)(4-hydroxypiperidin-1-yl)methanone] | ≤ 1000 |  |  |  | 
CC(C)(C)c1cc(-c2ccnc(-c3ccc(C(=O)N4CCC(O)CC4)cc3Cl)c2)ccn1 [Compound 2, (4-(2′-(tert-butyl)-[4,4′-bipyridin]-2-yl)-3-chlorophenyl)(4-hydroxypiperidin-1-yl)methanone] | ≤ 500 |  |  |  | 
CC(C)(C)c1cc(-c2cccc(-c3ccc(C(=O)N4CCC(O)CC4)cc3Cl)n2)ccn1 [Compound 3, (4-(2′-(tert-butyl)-[2,4′-bipyridin]-6-yl)-3-chlorophenyl)(4-hydroxypiperidin-1-yl)methanone] | ≤ 1000 |  |  |  | 
CC(C)(C)c1cc(-c2cncc(-c3ccc(C(=O)N4CCC(O)CC4)cc3Cl)c2)ccn1 [Compound 4, (4-(2′-(tert-butyl)-[3,4′-bipyridin]-5-yl)-3-chlorophenyl)(4-hydroxypiperidin-1-yl)methanone] | ≤ 100 |  |  |  | 
CC(C)(C)c1cc(-c2cccc(-c3ccc(C(=O)N4CCC(O)CC4)cc3Cl)c2)ccn1 [Compound 5, (3′-(2-(tert-butyl)pyridin-4-yl)-2-chloro-[1,1′-biphenyl]-4-yl)(4-hydroxypiperidin-1-yl)methanone] | ≤ 100 |  |  |  | 
CC(C)(C)c1cc(-c2ccnc(-c3ccc(C(=O)N4CCC(O)CC4)cc3Cl)n2)ccn1 [Compound 6, (4-(4-(2-(tert-butyl)pyridin-4-yl)pyrimidin-2-yl)-3-chlorophenyl)(4-hydroxypiperidin-1-yl)methanone] | ≤ 1000 |  |  |  | 
CC(C)(C)c1cc(-c2nccc(-c3ccc(C(=O)N4CCC(O)CC4)cc3Cl)n2)ccn1 [Compound 7, (4-(2-(2-(tert-butyl)pyridin-4-yl)pyrimidin-4-yl)-3-chlorophenyl)(4-hydroxypiperidin-1-yl)methanone] | ≤ 1000 |  |  |  | 
CC1(O)CCCN(C(=O)c2ccc(-c3cncc(-c4ccnc(C(C)(C)C)c4)c3)c(Cl)c2)C1 (stereo not shown) [drawing 366] |  | 5.81 | 11.4 | 10 to 60 (≈ 21.6 to 129 µM) | 
CC1(O)CCN(C(=O)c2ccc(-c3cncc(-c4ccnc(C(C)(C)C)c4)c3)c(Cl)c2)CC1 [drawing 369] |  | 13 | 30.3 | 10 to 60 (≈ 21.6 to 129 µM) | 
CC(C)OC(=O)Nc1ccc(-c2cncc(-c3ccnc(C4OCCO4)c3)c2)c(Cl)c1 [drawing 371] |  | 13.5 | 19.2 | < 10 | 
CC(C)OC(=O)Nc1ccc(-c2cncc(-c3ccnc(C(C)(C)C)c3)c2)c(Cl)c1 [drawing 372] |  | 69.9 | 222 | < 10 | 
COC1CCCN(C(=O)c2ccc(-c3cncc(-c4ccnc(C(C)(C)C)c4)c3)c(Cl)c2)C1 (stereo not shown) [drawing 375] |  | 2.02 | 8.98 | 10 to 60 (≈ 21.6 to 129 µM) | 
CC(C)(C)c1cc(-c2cc(-c3ccc(C(=O)N4CCC(O)CC4)cc3Cl)ncn2)ccn1 [drawing 376] |  | 20.3 | 68.2 | 10 to 60 (≈ 22.2 to 133 µM) | 
CC(C)(C)c1cc(-c2cccc(-c3ccc(C(=O)N4CCC(O)CC4)cc3Cl)c2)ccn1 [drawing 377] |  | 46.5 | 89.9 | < 10 | 
CC(C)(C)c1cc(-c2cncc(-c3ccc(C(=O)N4CCC(O)CC4)cc3Cl)c2)ccn1 [drawing 378] |  | 61.2 | 80.1 | 10 to 60 (≈ 22.2 to 133 µM) | 
CC(C)(C)c1cc(-c2cncc(-c3ccc(C(=O)N4CCC(O)C(O)C4)cc3Cl)c2)ccn1 (stereo not shown) [drawing 419] |  | 21.8 | 66.5 | 10 to 60 (≈ 21.5 to 129 µM) | 
CC(C)(C)c1cc(-c2cncc(-c3ccc(C(=O)N4CCC(O)C(O)C4)cc3Cl)c2)ccn1 (stereo not shown) [drawing 423] |  |  |  |  | G: half-life human liver microsomes [1]: 21.4 min; H: half-life of mouse liver microsomes [2]: 56.5 min; I: kinetic solubility class (Kinetic solubility; 24 h): MEDIUM (10 to 60 μg/mL=Medium)
N-(4-(2′-(tert-butyl)-[3,4′-bipyridin]-5-yl)-3-chlorophenyl)-isopropylsulfamoyl urea [Compound Z-812] |  |  |  |  | Intravenous Delivery (IV) CL ([3]; IV, 2 mg/kg): 53.5 mL/min/kg; Intravenous Delivery (IV) T1/2 ([3]; IV, 2 mg/kg): 112 min; Intravenous Delivery (IV) Vd ([3]; IV, 2 mg/kg): 8.65 L/kg; % F (Bioavailability of oral delivery) ([3]; PO 10 mg/kg vs IV 2 mg/kg): 0.65%; Oral Administration (PO) AUC0-last ([3]; PO, 10 mg/kg): 18 ng·h/mL; Oral Administration (PO) T1/2 ([3]; PO, 10 mg/kg): 81 min; Oral Administration (PO) Tmax ([3]; PO, 10 mg/kg): 19.8 min; Intravenous Delivery (IV) AUC0-last ([4]; IV, 2 mg/kg): 1150 ng·h/mL; Intravenous Delivery (IV) CL ([4]; IV, 2 mg/kg): 28.6 mL/min/kg; Intravenous Delivery (IV) T1/2 ([4]; IV, 2 mg/kg): 67.2 min; Intravenous Delivery (IV) Vd ([4]; IV, 2 mg/kg): 2.78 L/kg; % F (Bioavailability of oral delivery) ([4]; PO 10 mg/kg vs IV 2 mg/kg): 52%; Oral Administration (PO) AUC0-last ([4]; PO, 10 mg/kg): 3000 ng·h/mL; Oral Administration (PO) T1/2 ([4]; PO, 10 mg/kg): 253 min; Oral Administration (PO) Tmax ([4]; PO, 10 mg/kg): 15 min
